Reference: the NIST ThermoML archive (doi:10.1016/j.jct.2017.02.011)
Numbers after ± are expanded uncertainties.

What was measured:
[1] = Crystal; DTA
[2] = Molar enthalpy of transition or fusion; details: Crystal; DSC

For `Cc1cc(C)[nH]n1` [3,5-dimethylpyrazole], the Normal melting temperature [1] was 108.60 ± 0.5 °C and the “Molar enthalpy of transition or fusion” value [2] was 3.94 ± 0.21 kcal/mol.
